Assay [1] has as its target human activated kallikrein enzyme (Homo sapiens, UniProt P03952). In words: Plasma kallikrein inhibition, fluorogenic PFR-AMC substrate, 500 pM activated kallikrein format. The format is biochemical. As to conditions: 500 pM activated kallikrein, 300 uM PFR-AMC, 30 min preincubation, 10 min reaction; read-out: Primary Dose Response Assay: Average EC50. Summed up:
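High-enzyme format of the fluorogenic peptide assay, with EC50 taken from AMC signal: 500 pM activated kallikrein, 300 uM Pro-Phe-Arg-AMC, 30 min compound preincubation and 10 min reaction, all at room temperature, pH 7.5.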

Assay [2] addresses T1, plasma kallikrein (Homo sapiens, UniProt P03952).
T1 construct: from tissue
In words: Neat human plasma assay, FXIIa contact pathway-activated, PFR-AMC substrate. The format is biochemical. The following applies: citrated human plasma 78% final, 10 nM human FXIIa, 100 μM PFR-AMC; read-out: Human Plasma Assay: IC90. How it is done: To analyze inhibition of plasma kallikrein in an ex vivo setting, the potency of compounds was measure in contact pathway-activated plasma assays. In a fluorogenic peptide substrate assay, test compounds dissolved in DMSO were added to sodium citrate collected human or rat plasma in a 96-well microplate. Alternatively, citrated plasma was collected from rats administered the compounds orally or by IV. 10 nM of human FXIIa (Enzyme Research Laboratories) diluted in pKal buffer (20 mM Tris-HCl, pH 7.5, 150 mM NaCl, 1 mM EDTA, 0.1% PEG-8000, and 0.1% Triton X-100) was added to the plasma, followed by the 100 μM of the profluorescent, synthetic plasma kallikrein substrate PFR-AMC (also diluted in pKal buffer). Final plasma concentration in the reaction was 78%. Fluorescence was immediately monitored by excitation/emission wavelengths of 360 nm/480 nm respectively over a period of 5 minutes in a microplate reader. The resulting linear increase in fluorescence emission (reflecting pKal proteolysis of PFR-AMC substrate) was fit to extract a proteolytic rate (fluorescent units over time), and this rate was subsequently plotted against compound inhibitor concentration. Resulting plots were fit to a standard 4-parameter IC50/IC90 equation to determine min/max values, IC50/90, and slope. All experimental steps were performed at room temperature. Table 50 provides results of the assay.

Each structure is given as a SMILES string. pEC50: −log10 of the molar value.

By pEC50 is commonly meant the negative decadic logarithm of the EC50, by convention in mol/L. One may read the IC90 as the point of the concentration-response curve where the effect stands at 90%.

Sequence of human activated kallikrein enzyme (P03952 391-638 limits assumed): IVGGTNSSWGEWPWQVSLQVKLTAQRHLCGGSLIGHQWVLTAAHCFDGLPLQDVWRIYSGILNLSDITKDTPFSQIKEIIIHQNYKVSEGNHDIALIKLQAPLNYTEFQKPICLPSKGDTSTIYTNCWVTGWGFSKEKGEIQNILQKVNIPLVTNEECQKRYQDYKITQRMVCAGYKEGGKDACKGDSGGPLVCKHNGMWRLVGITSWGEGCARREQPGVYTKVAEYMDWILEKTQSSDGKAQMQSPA
Sequence of human activated kallikrein enzyme (P03952 20-390 partner limits assumed): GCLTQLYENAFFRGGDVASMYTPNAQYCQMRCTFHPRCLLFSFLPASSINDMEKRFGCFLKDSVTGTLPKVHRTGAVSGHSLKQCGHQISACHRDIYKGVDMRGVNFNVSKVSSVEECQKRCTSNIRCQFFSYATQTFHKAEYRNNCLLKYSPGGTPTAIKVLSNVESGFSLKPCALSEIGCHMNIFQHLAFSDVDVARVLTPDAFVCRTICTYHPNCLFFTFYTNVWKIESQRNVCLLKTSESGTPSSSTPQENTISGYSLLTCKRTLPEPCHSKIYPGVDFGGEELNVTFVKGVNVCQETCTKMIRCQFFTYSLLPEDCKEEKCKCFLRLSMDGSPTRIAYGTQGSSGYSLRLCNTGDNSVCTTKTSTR
T1 sequence (P03952 391-638 limits assumed): as the sequence (P03952 391-638 limits assumed) above
T1 sequence (P03952 20-390 partner limits assumed): as the sequence (P03952 20-390 partner limits assumed) above

As to `N#Cc1ccc(Cl)cc1[C@@H]1C[C@H]1C(=O)Nc1cc(NCc2cn3cc(C4CC4)cc(CO)c3n2)ccn1` (racemic) [Example 100, rac-(1S*,2S*)-2-(5-chloro-2-cyanophenyl)-N-(4-(((6-cyclopropyl-8-(hydroxymethyl)imidazo[1,2-a]pyridin-2-yl)methyl)amino)pyridin-2-yl)cyclopropane-1-carboxamide], the pEC50 in assay [1] was greater than 9.00. Moreover, in assay [2], the IC90 lay in the range of 10000 to 48000 nM.

Turning to `O=C(Nc1cc(NCc2cn3cc(C4CC4)ccc3n2)cnn1)[C@H]1C[C@@H]1c1cccc(Cl)c1` (racemic) [Example 101, rac-(1S*,2S*)-2-(3-chlorophenyl)-N-(5-(((6-cyclopropylimidazo[1,2-a]pyridin-2-yl)methyl)amino)pyridazin-3-yl)cyclopropane-1-carboxamide], the pEC50 in assay [1] was 8.00 to 9.00. Moreover, the IC90 in assay [2] is 10000 to 48000 nM.

Turning to `COCc1nc(NCc2cn3cc(C4CC4)ccc3n2)cc(NC(=O)[C@@H]2C[C@H]2c2cccc(Cl)c2)n1` (racemic) [Example 108, rac-(1S*,2S*)-2-(3-chlorophenyl)-N-(6-(((6-cyclopropylimidazo[1,2-a]pyridin-2-yl)methyl)amino)-2-(methoxymethyl)pyrimidin-4-yl)cyclopropane-1-carboxamide], the pEC50 in assay [1] was 8.00 to 9.00. In addition, the IC90 in assay [2] lay within 10000 to 48000 nM.

`Cc1ccnc([C@H]2C[C@@H]2C(=O)Nc2cc(NCc3cn4cc(C5CC5)cc(N5CC(=O)N(C)C5=O)c4n3)nc(C3(O)COC3)n2)n1` (racemic) [Example 113, rac-(1S*,2S*)—N-(6-(((6-cyclopropyl-8-(3-methyl-2,4-dioxoimidazolidin-1-yl)imidazo[1,2-a]pyridin-2-yl)methyl)amino)-2-(3-hydroxyoxetan-3-yl)pyrimidin-4-yl)-2-(4-methylpyrimidin-2-yl)cyclopropane-1-carboxamide]: in assay [1], the pEC50 is greater than 9.00. Further, the IC90 in assay [2] was in the range of 400 to 1500 nM.

As for `Cc1ccnc([C@H]2C[C@@H]2C(=O)Nc2cc(NCc3cn4cc(C5CC5)cc(N5CC(=O)N(C)C5=O)c4n3)nc(C3(F)COC3)n2)n1` (racemic) [Example 114, rac-(1S*,2S*)—N-(6-(((6-cyclopropyl-8-(3-methyl-2,4-dioxoimidazolidin-1-yl)imidazo[1,2-a]pyridin-2-yl)methyl)amino)-2-(3-fluorooxetan-3-yl)pyrimidin-4-yl)-2-(4-methylpyrimidin-2-yl)cyclopropane-1-carboxamide], in assay [1], the pEC50 was 8.00 to 9.00. Moreover, the IC90 in assay [2] lay in the range of 400 to 1500 nM.

Take `NCc1cc(C2CC2)cn2cc(CNc3ccnc(NC(=O)[C@H]4C[C@@H]4c4cccc(Cl)c4)c3)nc12` (racemic) [Example 120, rac-(1S*,2S*)—N-(4-(((8-(aminomethyl)-6-cyclopropylimidazo[1,2-a]pyridin-2-yl)methyl)amino)pyridin-2-yl)-2-(3-chlorophenyl)cyclopropane-1-carboxamide]: the pEC50 in assay [1] is greater than 9.00. In addition, in assay [2], the IC90 lay in the range of 10000 to 48000 nM.

Consider `CC(C)(O)c1cc(C2CC2)cn2cc(CNc3ccnc(NC(=O)[C@H]4C[C@@H]4c4cc(Cl)ccc4C#N)c3)nc12` (racemic) [Example 131, rac-(1S*,2S*)-2-(5-chloro-2-cyanophenyl)-N-(4-(((6-cyclopropyl-8-(2-hydroxypropan-2-yl)imidazo[1,2-a]pyridin-2-yl)methyl)amino)pyridin-2-yl)cyclopropane-1-carboxamide], for which, in assay [1], the pEC50 is greater than 9.00. Further, the IC90 in assay [2] is 10000 to 48000 nM.

For the compound `CN1CCN(c2cc(C3CC3)cn3cc(CNc4ccnc(NC(=O)[C@@H]5C[C@H]5c5cc(Cl)ccc5C#N)c4)nc23)CC1` (racemic) [Example 143, rac-(1S*,2S*)-2-(5-chloro-2-cyanophenyl)-N-(4-(((6-cyclopropyl-8-(4-methylpiperazin-1-yl)imidazo[1,2-a]pyridin-2-yl)methyl)amino)pyridin-2-yl)cyclopropane-1-carboxamide], in assay [1], the pEC50 is greater than 9.00. Also, the IC90 in assay [2] lay in the range of 400 to 1500 nM.

Take `O=C(Nc1cc(NCc2cn3cc(C4CC4)ccc3n2)ccn1)[C@H]1C[C@@H]1c1cc(Cl)ccc1-n1cnnn1` (racemic) [Example 287, rac-(1S*,2S*)-2-(5-chloro-2-(1H-tetrazol-1-yl)phenyl)-N-(4-(((6-cyclopropylimidazo[1,2-a]pyridin-2-yl)methyl)amino)pyridin-2-yl)cyclopropane-1-carboxamide]: the pEC50 in assay [1] was greater than 9.00. Also, in assay [2], the IC90 fell in the range of 10000 to 48000 nM.

Take `N#Cc1ccc(Cl)cc1[C@H]1C[C@@H]1C(=O)Nc1cc(NCc2cn3cc(C4CC4)cc(COCCO)c3n2)ccn1` (racemic) [Example 289, rac-(1S*,2S*)-2-(5-chloro-2-cyanophenyl)-N-(4-(((6-cyclopropyl-8-((2-hydroxyethoxy)methyl)imidazo[1,2-a]pyridin-2-yl)methyl)amino)pyridin-2-yl)cyclopropane-1-carboxamide]: the pEC50 in assay [1] is greater than 9.00. The IC90 in assay [2] was 1500 to 10000 nM.

With `O=C(Nc1cc(NCc2cn3cc(C4CC4)cc(C4(F)COC4)c3n2)ccn1)[C@H]1C[C@@H]1c1cccc(Cl)c1` (racemic) [Example 294, rac-(1S*,2S*)-2-(3-chlorophenyl)-N-(4-(((6-cyclopropyl-8-(3-fluorooxetan-3-yl)imidazo[1,2-a]pyridin-2-yl)methyl)amino)pyridin-2-yl)cyclopropane-1-carboxamide], the pEC50 in assay [1] is greater than 9.00. In addition, the IC90 in assay [2] was in the range of 10000 to 48000 nM.

For the compound `Cc1ccnc([C@H]2C[C@@H]2C(=O)Nc2cc(NCc3cn4cc(C5CC5)cc(S(C)(=O)=O)c4n3)ncn2)n1` (racemic) [Example 322, rac-(1S*,2S*)—N-(6-(((6-cyclopropyl-8-(methylsulfonyl)imidazo[1,2-a]pyridin-2-yl)methyl)amino)pyrimidin-4-yl)-2-(4-methylpyrimidin-2-yl)cyclopropane-1-carboxamide], the pEC50 in assay [1] was greater than 9.00. Also, the IC90 in assay [2] fell in the range of 400 to 1500 nM.

Consider `CC(C)(O)c1cc(C2CC2)cn2cc(CNc3cc(NC(=O)[C@H]4C[C@@H]4c4cc(Cl)ccc4C#N)ncn3)nc12` (racemic) [Example 337, (rac-(1S*,2S*))-2-(5-chloro-2-cyanophenyl)-N-(6-(((6-cyclopropyl-8-(2-hydroxypropan-2-yl)imidazo[1,2-a]pyridin-2-yl)methyl)amino)pyrimidin-4-yl)cyclopropane-1-carboxamide], for which, in assay [1], the pEC50 was 8.00 to 9.00. The IC90 in assay [2] lay within 10000 to 48000 nM.

In the case of `Cc1cc(NCc2cn3cc(C4CC4)ccc3n2)cc(NC(=O)[C@H]2C[C@@H]2c2cc(Cl)ccc2C#N)n1` (racemic) [Example 342, rac-(1S*,2S*)-2-(5-chloro-2-cyanophenyl)-N-(4-(((6-cyclopropylimidazo[1,2-a]pyridin-2-yl)methyl)amino)-6-methylpyridin-2-yl)cyclopropane-1-carboxamide], in assay [1], the pEC50 was greater than 9.00. In assay [2], the IC90 lay in the range of 1500 to 10000 nM.

`O=C(Nc1ncnc(NCc2cn3cc(C4CC4)ccc3n2)n1)[C@H]1C[C@@H]1c1cccc(Cl)c1` (racemic) [Example 344, (rac-(1S*,2S*))-2-(3-chlorophenyl)-N-(4-(((6-cyclopropylimidazo[1,2-a]pyridin-2-yl)methyl)amino)-1,3,5-triazin-2-yl)cyclopropane-1-carboxamide]: the pEC50 in assay [1] is 8.00 to 9.00. For the same compound, the IC90 in assay [2] was in the range of 1500 to 10000 nM.

These data come from patent publication US20240228488A1 (TAKEDA PHARMACEUTICAL COMPANY LIMITED, priority 2021, published 2024).
